Molecular target: T1, PDE10A (Rattus norvegicus, UniProt Q9QYJ6)
T1 construct: from tissue; host or cells: brain (striatum) of living male Wistar rats, in vivo microPET
T1 sequence (Q9QYJ6 1-794): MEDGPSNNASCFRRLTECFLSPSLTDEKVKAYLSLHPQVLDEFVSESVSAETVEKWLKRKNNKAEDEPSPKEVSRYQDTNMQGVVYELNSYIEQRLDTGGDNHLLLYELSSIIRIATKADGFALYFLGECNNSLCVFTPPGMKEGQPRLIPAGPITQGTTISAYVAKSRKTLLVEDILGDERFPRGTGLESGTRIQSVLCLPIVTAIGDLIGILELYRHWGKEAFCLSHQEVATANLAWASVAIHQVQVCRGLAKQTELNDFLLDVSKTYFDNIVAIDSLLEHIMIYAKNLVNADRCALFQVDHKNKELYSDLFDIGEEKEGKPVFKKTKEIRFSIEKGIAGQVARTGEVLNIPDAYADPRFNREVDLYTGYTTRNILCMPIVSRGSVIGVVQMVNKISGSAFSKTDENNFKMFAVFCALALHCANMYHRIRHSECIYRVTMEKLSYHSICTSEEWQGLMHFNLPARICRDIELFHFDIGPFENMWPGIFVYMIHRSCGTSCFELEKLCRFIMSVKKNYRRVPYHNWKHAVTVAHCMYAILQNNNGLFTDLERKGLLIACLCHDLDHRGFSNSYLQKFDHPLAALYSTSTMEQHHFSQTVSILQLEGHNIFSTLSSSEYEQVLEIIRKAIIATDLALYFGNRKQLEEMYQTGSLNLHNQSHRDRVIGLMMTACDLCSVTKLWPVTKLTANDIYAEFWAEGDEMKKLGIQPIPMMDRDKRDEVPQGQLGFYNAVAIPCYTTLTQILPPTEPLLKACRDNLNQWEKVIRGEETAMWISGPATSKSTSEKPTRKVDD
Assay: microPET imaging study
Type: in vivo
Description: (§1) Imaging experiments were performed on a Focus™ 220 microPET scanner (Concorde Microsystems, Knoxville, Tenn., USA) using male Wistar rats with body weight between 200 and 300 g. Animals were injected with about 74 MBq of high specific activity formulation of [^18F]B-1 via tail vein under anesthesia (2.5% Isoflurane in O2 at 1 L/min flow rate). Dynamic scans of 90 min were acquired in List mode. Acquisition data were Fourier rebinned in different time frames (4×15 s, 4×1 min, 5×3 min, 14×5 min) and reconstructed with Filtered Back Projection (FBP). An average image (frame 1 to 27) of the reconstructed data was spatially normalized to an in-house created [^11C]raclopride template of the rat brain in Paxinos coordinates. The affine transformation was then used to normalize all time frames of the dynamic dataset to allow automated and symmetric volumes of interest (VOIs) analyses. Time-activity curves (TAC) were generated for striatum, cortex and cerebellum for each individual scan, using PMOD software (v 3.0, PMOD Technologies Ltd., Zurich, Switzerland). The radioactivity concentration in the different brain regions was expressed as standardized uptake value (SUV) as a function of time p.i. of the radiotracer by normalization for body weight of the animal and injected dose. Since PDE10A is expressed at low level in the cerebellum, binding potential (BP) values were calculated using the multilinear reference tissue model developed by Ichise et al. with the cerebellum considered as reference, using the same software (PMOD). Rats (n=5) were used for baseline imaging of which 3 animals were used in pretreatment studies in which the non-radioactive analogue B-1 was administered subcutaneously at a dose of 5 mg/kg at 30 min prior to the radiotracer injection.
Imaging experiments were performed on a Focus™ 220 microPET scanner (Concorde Microsystems, Knoxville, Tenn., USA) using male Wistar rats with body weight between 350 and 480 g. For the baseline microPET study, rats (n=2) were injected with about 74 MBq of high specific activity formulation of [^18F]B-2 via tail vein under anesthesia (2.5% Isoflurane in O2 at 1 L/min flow rate). For the pretreatment experiment, the radioactivity dose was reduced to about 37 MBq. Pretreatment was done by administering the non-radioactive analogue B-2 subcutaneously at a dose of 2.5 mg/kg at 60 min prior to the tracer injection (n=1).
as §1, with “Dynamic” for “Imaging experiments were performed on a Focus™ 220 microPET scanner (Concorde Microsystems, Knoxville, Tenn., USA) using male Wistar rats with body weight between 200 and 300 g. Animals were injected with about 74 MBq of high specific activity formulation of [^18F]B-1 via tail vein under anesthesia (2.5% Isoflurane in O2 at 1 L/min flow rate). Dynamic”, “120” for “90”, “8×5 min, 10×6” for “14×5”, “31)” for “27)”, “(PMOD).” for “(PMOD). Rats (n=5) were used for baseline imaging of which 3 animals were used in pretreatment studies in which the non-radioactive analogue B-1 was administered subcutaneously at a dose of 5 mg/kg at 30 min prior to the radiotracer injection.”

## [18F]CCCn1cc(-c2ccncc2)c(-c2ccc(OCc3ccc4ccccc4n3)cc2)n1 [[^18F]B-1]
B-1, 5 mg/kg s.c., 30 min prior to tracer
  binding potential (BP) value after non-radioactive analogue: 0.11±0.10
baseline
  time at which peak tissue concentrations in the brain were reached: within one minute
baseline, at 15 min post injection
  Peak striatum-to-cerebellum ratio: 2.7
baseline, until about 35 min post injection
  striatum-to-cerebellum ratio: higher than 2.5
baseline, cerebellum as reference
  binding potential (BP) value at baseline: 0.58±0.17
non-radioactive B-1, 5 mg/kg s.c., 30 min prior
  reduction in BP values with pretreatment compared to baseline: about 80%
pre-treated with non-radioactive B-1, 5 mg/kg s.c., 30 min prior
  striatum-to-cerebellum ratio after pre-treatment: 1.5

Source: patent US20110305637A1, “RADIOLABELLED PDE10 LIGANDS” (Janssen Pharmaceutica N.V., priority 2009, published 2011)
